In US11046647B2, “Activators of the unfolded protein response” (The Board of Trustees of the University of Illinois, priority 2018, dated 2021):

Tests used:
T47D, TYS and TDG cells = assay: MTS proliferation assay (4 days), T47D, TYS and TDG; assay type: cell-based, human
Method: FIG. 30 compares the ability of BHPI and test compounds to inhibit proliferation of T47D, TYS and TDG cells. T47D cells were in medium containing 10 FBS (which contains estrogen), TYS-4 and TDG-1 cells were in medium containing 10% cd-FBS (estrogen depleted). Cells are plated at 2,000 cells/well in 96 well plates. After 24 hours in medium containing FBS or charcoal-dextran treated FBS (depleted of endogenous estrogens), the indicated concentration of each compound (in DMSO at 1/1000th of the volume of medium) was added. After 2 days the medium was changed, and the compounds were added again. After 2 additional days (4 days total) MTS assays are used to evaluate cell proliferation. (n=6 ±S.E.M.).

[1] = test system: ERα Negative MCF-10A cells; assay: Trypan Blue exclusion cell death assay, MCF-10A; assay type: cell-based; settings: 75 nM, 24 hours
From the text: (§1) TRYPAN BLUE: For decades, viable cells have been measured by their ability to exclude the dye Trypan Blue. […] Dead cells, which have lost membrane integrity, take up the dye and are blue. Thus, the percentage of dead cells is the percentage of cells that are Trypan Blue positive out of the total cell population. Quantitative assessment of Trypan Blue uptake uses a cell counter from Fisher. Since the assay is instrument based, there is no observer bias in determining the percentage of Trypan Blue positive cells.
(§2) TRYPAN BLUE ASSAYS: Assays are performed on cells in 6 well plates: 300,000 cells are plated in each well of a 6-well plate in 3 ml of medium. After 24 hours, the DMSO vehicle or the indicated compound is added (in 1000th of the vol.) The cells incubated for an additional 24 hours, and then harvested in 0.25 ml of trypsin, followed after harvest by 0.75 ml of medium. The cells are spun down and resuspended in 100-200 μl of medium left that is over the cell pellet (resuspend cells by pipetting up and down a few times). Add 10 μl to 10 μl of trypan blue. Then 10 μl is inserted into the counting slide. After inserting the slide into the Fisher TC20 counting is automatic (these many cells are needed because an accurate ratio of Trypan Blue positive to Trypan Blue negative cells requires about 200 cells in the field the instrument counts).
In FIG. 28, neither the test compounds nor BHPI kill non-tumorigenic ERα Negative MCF-10A breast cells. ERα Negative MCF-10A cells were maintained for 24 hours in DMSO vehicle or 75 nM of BHPI or 75 nM of each of the indicated test compounds: 4, 6 and 105. Cell death was determined using the instrument-based Trypan Blue exclusion assay. (n=3±SEM).

TYS cells = assay: Trypan Blue exclusion cell death assay, TYS / TYS-Luc; assay type: cell-based, human; settings: 24 hours
From the text: as §1, §2
The Trypan Blue cell death assay was used to evaluate the ability of the active enantiomer of 105 (−) [(−)-105] to kill ERα positive MCF-7 and TYS-Luc, human breast cancer cells. 300,000 T47D cells/well in 10% FBS were plated in a 6-well plate in triplicate. 24 hours after plating, the indicated concentrations of BHPI, or the active enantiomer 105 (−) of C-105 [(−)-105] was added. After 24 hours, the cells were harvested, and the % dead cells was determined by automated Trypan Blue exclusion using the Countess II automated hemocytometer. Percentage of viable cells was calculated by doing 100-(Cell Death %). (n=3±SEM).
TYS cells were incubated for 24 hours with 35 nM of BHPI or 35 nM of each of the indicated test compounds: 2, 4, and 105. Cell death was determined using the instrument-based Trypan Blue exclusion assay.
TYS cells were incubated for 24 hours with 50 nM of BHPI or 50 nM of each of the indicated test compounds: 4, 6 and 105. Cell death was determined using the instrument-based Trypan Blue exclusion assay. (n=3±SEM).

T47D cells [2] = assay: Trypan Blue exclusion cell death assay, T47D / T47D-Luc; assay type: cell-based, human; settings: 75 nM, 24 hours
From the text: as §1
as §2, with “After inserting the slide into the Fisher TC20 counting is automatic (these many cells are needed because an accurate ratio of Trypan Blue positive to Trypan Blue negative cells requires about 200 cells in the field the instrument counts).” left out
The Trypan Blue cell death assay was used to compare the ability of the active (−) enantiomer of C-105 and BHPI to kill estrogen receptor α (ERα) positive T47D, human breast cancer cells expressing luciferase (T47D-Luc cells). […] After 24 hours, the cells were harvested, and the % dead cells was determined by automated Trypan Blue exclusion using the Countess II automated hemocytometer. Percentage of viable cells was calculated by doing 100-(Cell Death %). […]
T47D cells were incubated for 24 hours with 75 nM of BHPI or 75 nM of each of the indicated test compounds: 4 and 6. Cell death was determined using the instrument-based Trypan Blue exclusion assay. […]
T47D cells were treated for 24 hours with 100 nM BHPI, or with 100 nM of each of the test compounds: 6, 8, and 105. […] Cell death was determined using the instrument-based Trypan Blue exclusion assay. […]

TDG cells = assay: Trypan Blue exclusion cell death assay, TDG / TDG-Luc; assay type: cell-based, human; settings: 24 hours
From the text: as §1, §2
The Trypan Blue cell death assay was used to evaluate the ability of the active enantiomer of C-105 [(−)-105] to kill ERα positive TDG-Luc cells. For all studies, 300,000 TDG-Luc cells/well in 10% FBS were plated in a 6-well plate in triplicate. 24 hours after plating, the indicated concentrations the active enantiomer of (−)-105, or BHPI (top) ICI, or OHT (Lower left) or (+)-105 (lower right) were added. After 24 hours, the cells were harvested, and the % dead cells was determined by automated Trypan Blue exclusion using the Countess II automated hemocytometer. Percentage of viable cells was calculated by doing 100-(Cell Death %). (n=3±SEM).
TDG cells were incubated for 24 hours with 75 nM of BHPI or 75 nM of each of the indicated test compounds: 4, 6 and (±)-105 (enantiomers not separated). Cell death was determined using the instrument-based Trypan Blue exclusion assay. Structures are in the Synthesis section. […] (n=3±SEM).

T47D cells [3] = settings: 24 hours; up to 1,000 nM; FACS annexin V-FITC/PI
Method: One such change is loss of plasma membrane polarity. This is monitored using Annexin V. Dying cells also take up the dye propidium iodide. Propidium iodide (PI) fluoresces when it is intercalated into DNA. These assays monitor cells at specific stages of cell death.
FLOW CYTOMETRY (FITC) ASSAYS: Cells were seeded in 12-well plates, 75,000 cells/well, and allowed to adhere overnight. The next day, the indicated concentrations of raptinal (positive control), (−)-105, (±)-105, and (+)-105 were added and allowed to incubate at 37° C. for 24 hours (Final Volume: 1 ml, 0.1% DMSO). After incubation, cells were harvested and resuspended in 350 μl of cold Annexin binding buffer (10 mM HEPES, 140 mM NaCl, 2.5 mM CaCl2, pH 7.4) premixed with Annexin V-FITC and PI dyes. Samples were analyzed on a BD Biosciences LSRII flow cytometer, and data analysis was performed using FSC Express Version 5-6. Cell death was assessed relative to a DMSO treated control.
T47D, human breast cancer cells were plated at 75,000 cells/well. The next day, DMSO vehicle, 10 μM raptinal (control for 100% cell death), or 0, 50, 100 500 and 1,000 nM of BHPI or (±)-105, or 1,000 nM ICI/fulvestrant or 1,000 nM OHT was added. After 24 hours viable cells were determined by FACS using annexin V-FITC and propidium iodide dyes. (n=3 independent experiments ±SEM).
75,000 ERα positive T47D, human breast cancer cells, were plated/well. The next day, DMSO vehicle, 10 μM raptinal (control for 100% cell death), or 100 500 and 1,000 nM of (+)-105, or (−)-105 was added. After 24 hours viable cells were determined by FACS using annexin V-FITC and propidium iodide dyes. (n=1).

MCF-7 tumors = assay: MCF-7 orthotopic tumor model; assay type: in vivo, mouse; settings: large established MCF-7 tumors; SERK-F6 10 or 40 mg/kg p.o. daily; fulv. 5 mg/mouse s.c. weekly
Method: FIG. 39. SERK-F6 eradicates wild-type ERα tumors via hyperactivation of aUPR. a, MCF-7 orthotopic tumors were established in Nu/J ovariectomized mice supplemented with a 60 day E2 pellet (0.36 mg) and grown to ˜400 mm^3 (28 days to establish), randomized, then treated with vehicle daily (n=3), vehicle weekly (n=3), fulv. weekly (5 mg/mouse, s.c., n=6), SERK-F6 daily (10 or 40 mg/kg p.o.). Vehicle arms were averaged. p values: *: p≤0.05, **: p≤0.01, ***: p≤0.001, ****: p≤0.0001. Tumor images were taken at the end of the study (day 21) and are representative of all tumors (n=6). b-e, MCF-7 cells were orthotopically bi-laterally grafted and tumors were grown until total tumor burden was ˜400 mm^3 prior to daily treatment with vehicle or SERK-F6 (40 mg/kg p.o.). Mice (n=5 per arm) were sacrificed after 3 days (b,c) and 7 days (d,e) and tumors harvested. […] Vinculin (Vin) was used as a loading control. […] Error bars represent S.E.M.
To probe the efficacy of SERK-F6 for killing ERα positive tumors, large MCF-7 tumors were grown and then intervened with therapy. […] The mice were then sacrificed prior to complete tumor eradication.

[4] = test system: TYS and TDG breast cancer cells; assay: Killing of TYS and TDG breast cancer cells by endocrine therapy drugs; assay type: cell-based, human
OVCAR-3 cells = settings: OVCAR-3 orthotopic xenograft

COc1ccc(C2(c3ccc(O)cc3)C(=O)Nc3c(C)cccc32)cc1 (stereo not shown) [Compound 2, 3-(4-hydroxyphenyl)-3-(4-methoxyphenyl)-7-methylindolin-2-one]
effectiveness in killing compared with BHPI (T47D, TYS and TDG cells): more effective than BHPI

COc1ccc(C2(c3ccc(O)cc3)C(=O)Nc3c(C(F)(F)F)cccc32)cc1 (stereo not shown) [Compound 4, 3-(4-hydroxyphenyl)-3-(4-methoxyphenyl)-7-(trifluoromethyl)indolin-2-one]
cell death of MCF-10A cells [1]: neither BHPI nor any of the test compounds induce significant death
ability to kill TYS cells compared to BHPI (TYS cells; 35 nM): greatly increased ability to kill
ability to kill TYS cells compared to BHPI (TYS cells; 50 nM): increased ability to kill
ability to kill T47D cells compared to BHPI (T47D cells [2]): greatly increased ability to kill
effectiveness in killing compared with BHPI (T47D, TYS and TDG cells): more effective than BHPI
ability to kill TDG cells compared to BHPI (TDG cells; 75 nM): greatly increased ability to kill

Cc1cccc2c1NC(=O)C2(c1ccc(O)cc1)c1ccc(OC(F)(F)F)cc1 (stereo not shown) [Compound 6, 3-(4-hydroxyphenyl)-7-methyl-3-(4-(trifluoromethoxy)phenyl)indolin-2-one]
cell death of MCF-10A cells [1]: neither BHPI nor any of the test compounds induce significant death
effectiveness in killing compared with BHPI (T47D, TYS and TDG cells): more effective than BHPI

CC/C(=C(\c1ccc(O)cc1)c1ccc(OCCN(C)C)cc1)c1ccccc1 [OHT, z-4-hydroxytamoxifen, reference compound]
cytotoxic versus cytostatic phenotype (T47D cells [3]): cytostatic
killing of TDG-Luc cells, dose response (TDG cells): do not kill

C[C@]12CC[C@@H]3c4ccc(O)cc4C[C@@H](CCCCCCCCC[S+]([O-])CCCC(F)(F)C(F)(F)F)[C@H]3[C@@H]1CC[C@@H]2O (stereo partly shown) [fulvestrant, reference compound]
tumor response (MCF-7 tumors): dramatic effects against these large and established tumors are not obtained
killing of TDG-Luc cells, dose response (TDG cells): do not kill
ability to kill TYS and TDG cells [4]: no ability at all to kill

CC(=O)O[C@H]1C(=O)[C@@]2(C)[C@H]([C@H](OC(=O)c3ccccc3)[C@]3(O)C[C@H](OC(=O)[C@H](O)[C@@H](NC(=O)c4ccccc4)c4ccccc4)C(C)=C1C3(C)C)[C@]1(OC(C)=O)CO[C@@H]1C[C@@H]2O [paclitaxel]
tumor growth / detectability (OVCAR-3 cells): ineffective

CC/C(=C(\c1ccccc1)c1ccc(OCCN(C)C)cc1)c1ccccc1 [tamoxifen]
ability to kill TYS and TDG cells [4]: no ability at all to kill
